Experiments:
[1] = tested on: hippocampal neurons from a Sprague-Dawley (SD) rat fetus; experiment: Effect on axonal transport velocity of mitochondria (in vitro); type: cell-based; details: amyloid-beta treated neurons, vehicle set at 100%, amyloid-beta group at 0%
Experimental: To that end, on the 17th to 18th days (E17-18) of insemination, the hippocampal neurons from a Sprague-Dawley (SD) rat fetus were cultured for seven days in a culture container for imaging, which had been coated with extracellular matrix, and were treated with amyloid-beta protein fragments at a concentration of […]. In 24 hours later, such neurons were treated with the compound on the 8th day of in vitro culture. In three hours later, they were treated with MitoTracker Red CMXRos (Life Tech-nologies, NY, USA) for last five minutes to stain mitochondria. An image on the axonal transport of stained neuron mitochondria was taken with a confocal microscope (Leica SP8; Leica microsystems, UK) at an interval of one second for one minute to measure a transport velocity of each mitochondria per second with an IMARIS analysis program (BITPLANE, Zurich, Switzerland), and to set a section, in which the group treated with amyloid-beta had shown a significant decrease in the transport velocity of mitochondria compared to a vehicle. After that, the results of normalization with the vehicle set at 100% and with the group treated with amyloid-beta set at 0% were described in the following table 1.

HDAC-8 = biological target: T1, HDAC-8 (Homo sapiens, UniProt Q9BY41); experiment: HDAC isotype enzyme assay (Reaction biology Corp.); type: biochemical; details: substrate RHK-K(Ac)-AMC
T1 construct: Reaction biology Corp. (contract laboratory)
T1 sequence (Q9BY41 1-377): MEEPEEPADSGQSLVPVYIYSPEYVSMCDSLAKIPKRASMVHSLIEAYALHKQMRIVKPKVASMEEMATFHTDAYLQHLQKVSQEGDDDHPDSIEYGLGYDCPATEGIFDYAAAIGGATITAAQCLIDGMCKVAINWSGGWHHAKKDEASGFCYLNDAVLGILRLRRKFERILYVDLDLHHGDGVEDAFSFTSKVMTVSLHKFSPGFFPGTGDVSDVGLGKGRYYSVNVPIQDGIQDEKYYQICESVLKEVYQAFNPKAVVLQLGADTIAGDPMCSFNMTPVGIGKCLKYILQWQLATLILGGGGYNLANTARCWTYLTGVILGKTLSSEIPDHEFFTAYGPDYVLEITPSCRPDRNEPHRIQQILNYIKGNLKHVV

other HDAC isotypes = experiment: HDAC isotype enzyme assay (Reaction biology Corp.), remaining isotypes; type: biochemical; details: isotypes other than HDAC6 and HDAC8 (ND in table 3)
CMT1A mice (C22) [2] = experiment: Rotarod test; type: in vivo; details: 10, 25 and 100 mg/kg twice a day orally for two weeks, 2.5-week-old C22 mice, vs control group (DW C22)
Experimental: (§1) Particularly, the compound 84 was repeatedly administered into the 2.5-week-old CMT1A mice (C22) at 10, 25 and 100 mg/kg twice a day for two weeks. Behavioral evaluation and electrophysiological analysis were performed on the last day, immediately after which the animals were sacrificed to carry out histopathological analysis and evaluation.
(§2) Rotarod, balance beam and grip strength tests were conducted once a day for two days. Thereafter, the animals were distributed by the Z-array method based on the results of rotarod, grip strength, and body weight. C22 mice were divided into four groups consisting of DW treated group and three compound 84 treated groups (10, 25, 100 mg/kg) with 10 mice per group. The test articles were repeatedly administered twice a day orally, and the behavioral test was performed 30 min after administration of the test articles.
The Rotarod test (ROTA ROD, LE8205, Panlab) was performed to evaluate a motor coordination function/motor function. For three days before the test, all the test animals were placed on a road at 8 rpm and subjected to adaptive training five times a day. The animals, whose time of falling from the rod reached 150-180 seconds, were used in the test (including about 80% of all the animals). In both group separation and the present experiment, time at which animals fell from the rod was measured at a fixed speed of 8 rpm for three minutes. […]

CMT1A mice (C22) [3] = experiment: Grip strength test; type: in vivo; details: 10, 25 and 100 mg/kg twice a day orally for two weeks, 2.5-week-old C22 mice, vs control group (DW C22)
Experimental: as §1, §2
In an actual clinical test, a degree of muscle atrophy is evaluated with an ankle dorsiflexion examination and a grip test. GST (GRIP […] TEST, BIO-GS3, BIOSEB) is mainly used in an animal experiment. For the GST, strength of four feet was evaluated with grid. All the experiments were performed by one person. […] Out of the values consecutively measured five times, the maximum value was calibrated with a weight, and then used as evaluation results. […]

CMT1A mice (C22) [4] = experiment: Nerve conduction study (NCS); type: in vivo; details: 10, 25 and 100 mg/kg twice a day for two weeks, 2.5-week-old C22 mice, vs control group (DW C22)
Experimental: as §1
The evaluation of the nerve conduction study (NSC) was as follows. A supramaximal stimulus was applied to proximal peripheral nerves, after which the compound muscle action potentials (CMAP) produced from distal muscles controlled by the nerves were recorded to measure a latent period, amplitude, nerve conduction velocity (NCV), duration, shape, area and the like, which were then compared with normal values and thus evaluated. For the nerve conduction study (NSC), an electrical stimulus was given to the sciatic nerves of the mice anesthetized with isoflurane, after which the electrical stimulus given to sural nerves was measured with VikingQuest (Natus Medical Inc.).

CMT1A mice (C22) [5] = experiment: Histopathological analysis of sciatic nerves; type: in vivo
Experimental: as §1
A histopathological analysis was performed as follows. In 0.5 hours after the last administration of the compound 84, the mice were euthanized through cervical dis-location, after which their sciatic nerves were collected therefrom. For a histopathological examination, the collected sciatic nerves were fixed into 2.5% glu-taraldehyde solution. The fixed tissues were prepared into a plastic-embedded block through a tissue treatment process, then micro-sectioned in the semithin thickness of 500 nm to prepare sciatic nerve tissue fragments, and then stained with toluidine blue.
The stained nerve tissues were photographed at 400× magnification with an optical microscope. In a photographed entire area, the inner axon diameters of total myelinated fibers and total unmyelinated fibers were measured with an image J program. The results thereof were analyzed by using the numbers of total myelinated fibers and total unmyelinated fibers as well as a size distribution chart on the diameters of respective nerve fibers.

HDAC-6 [6] = biological target: T2, HDAC-6 (Homo sapiens, UniProt Q9UBN7); experiment: HDAC6 enzyme activity inhibition (HDAC Fluorimetric Drug Discovery Kit); type: biochemical; set-up: purchased Calbiochem Inc. 382180; details: HDAC6 over HDAC1
T2 sequence (Q9UBN7 1-1215): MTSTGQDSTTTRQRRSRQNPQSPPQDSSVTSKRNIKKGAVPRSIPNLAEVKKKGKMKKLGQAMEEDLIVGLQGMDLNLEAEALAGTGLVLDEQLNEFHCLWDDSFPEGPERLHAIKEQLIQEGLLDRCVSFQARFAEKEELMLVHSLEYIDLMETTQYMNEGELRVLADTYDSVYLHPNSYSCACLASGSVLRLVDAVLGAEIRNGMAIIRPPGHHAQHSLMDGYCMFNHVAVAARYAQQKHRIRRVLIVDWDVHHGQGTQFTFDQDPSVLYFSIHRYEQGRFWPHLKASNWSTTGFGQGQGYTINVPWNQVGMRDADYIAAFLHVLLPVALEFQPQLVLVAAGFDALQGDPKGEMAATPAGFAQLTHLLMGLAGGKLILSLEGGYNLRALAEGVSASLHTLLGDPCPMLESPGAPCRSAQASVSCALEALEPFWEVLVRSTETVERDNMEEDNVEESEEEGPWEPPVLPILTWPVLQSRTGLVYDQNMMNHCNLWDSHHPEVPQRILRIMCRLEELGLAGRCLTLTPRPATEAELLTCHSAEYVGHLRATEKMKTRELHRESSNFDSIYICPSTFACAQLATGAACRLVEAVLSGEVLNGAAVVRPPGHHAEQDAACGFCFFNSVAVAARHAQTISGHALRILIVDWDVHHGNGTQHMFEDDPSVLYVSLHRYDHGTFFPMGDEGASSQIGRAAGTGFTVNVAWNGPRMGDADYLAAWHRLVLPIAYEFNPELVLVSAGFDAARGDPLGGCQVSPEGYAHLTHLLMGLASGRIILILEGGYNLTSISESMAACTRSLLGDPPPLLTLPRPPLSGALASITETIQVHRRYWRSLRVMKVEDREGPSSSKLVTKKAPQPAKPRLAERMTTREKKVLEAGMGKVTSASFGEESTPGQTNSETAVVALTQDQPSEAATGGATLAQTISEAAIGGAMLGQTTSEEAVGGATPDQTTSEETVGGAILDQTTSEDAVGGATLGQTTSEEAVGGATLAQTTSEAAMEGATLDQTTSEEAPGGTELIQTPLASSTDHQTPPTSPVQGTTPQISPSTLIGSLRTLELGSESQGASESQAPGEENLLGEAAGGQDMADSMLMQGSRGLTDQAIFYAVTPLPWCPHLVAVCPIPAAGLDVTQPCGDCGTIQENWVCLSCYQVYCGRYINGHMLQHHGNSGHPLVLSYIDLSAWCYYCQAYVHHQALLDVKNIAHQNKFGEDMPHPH
Experimental: A comparative experiment was conducted with an existing developed material as a control group in order to identify the selectivity of the compound represented by Formula I of the present invention to HDAC6 through an experiment on HDAC1 and HDAC6 enzyme activity inhibition.
The HDAC enzyme activity was measured with HDAC Fluorimetric Drug Discovery Kit (BML-[1424] AK511, 516) of Enzo Life Science, Inc. For the test on the HDAC1 enzyme activity, human recombinant HDAC1 (BML-SE456) was used as an enzyme source and Fluor de Lys®-“SIRT1 (BNL-KI177)” was used as a substrate. A 5-fold dilution of the compound was divided into a 96-well plate, after which 0.3 μg of the enzyme and 10 μM of the substrate were inserted into each well and subjected to reaction at 30° C. for 60 minutes, such that Fluor de Lys® Developer II (BMLKI176) was inserted thereinto and subjected to reaction for 30 minutes and finished. After that, a fluorescence value (Ex 360, Em 460) was measured with a multi-plate reader (Flexstation 3, Molecular Device). An experiment on HDAC6 enzyme was conducted in accordance with the same protocol as an HDAC1 enzyme activity test method by using human recombinant HDAC6 (382180) of Calbiochem Inc. Each IC50 value was calculated with GraphPad Prism 4.0 program, and final result values were described in the following table 2.

HDAC-6 [7] = biological target: T2, HDAC-6; experiment: HDAC isotype enzyme assay (Reaction biology Corp.); type: biochemical; set-up: Reaction biology Corp. (contract laboratory); details: substrate RHK-K(Ac)-AMC
Source text: The experiment was requested at Reaction biology Corp. (Malvern, Pa., USA) and performed according to a test method established within the organization.

Row | Compound | Velocity distribution (%) ([1]; 0.5 uM) | Velocity distribution (%) ([1]; 15 uM) | IC50 (HDAC-8) [nM] | Inhibition of other HDAC isotypes (other HDAC isotypes) | Time of latency to fall (CMT1A mice (C22) [2]) | Grip strength (CMT1A mice (C22) [3]) | Compound muscle action potentials (CMAP) (CMT1A mice (C22) [4]) | Motor nerve conduction velocity (MNCV) (CMT1A mice (C22) [4]) | Size of diameters of myelinated nerves (CMT1A mice (C22) [5]; sciatic nerve, vs control group (C22-Veh)) | Ratio of myelinated nerves and unmyelinated nerves (CMT1A mice (C22) [5]; sciatic nerve, vs control group of mice) | Morphological changes (loss of myelinated nerve fibers, axonal atrophy and schwann cell hyperplasia) (CMT1A mice (C22) [5]; toluidine blue, 10, 25 or 100 mg/kg for two weeks, vs control group of mice) | HDAC6 selectivity (fold) (HDAC-6 [6]) | IC50 (HDAC-6 [7]) [nM] | Velocity distribution (%) ([1]; 1 uM) | Velocity distribution (%) ([1]; 3 uM)
1 | C[C@@H]1CN(Cc2ccc(C(=O)NO)cc2)C[C@H](C)N1Cc1ccccc1 [Compound 84, 4-(((3R,5S)-4-benzyl-3,5-dimethylpiperazin-1-yl)methyl)-N-hydroxybenzamide] | * (0%~50%) | *** (>100%) | 5170 | not inhibited at all | increased in a dose-dependent manner | increased in a dose-dependent manner | increased in a dose-dependent way | increased in a dose-dependent way | increase | significant increase | significant improvement | 517 | 72.2 |  | 
2 | C[C@@H]1CN(Cc2ccc(C(=O)NO)cc2)C[C@H](C)N1Cc1cccc(CN2CCCCC2)c1 [Compound 382, 4-(((3R,5S)-3,5-dimethyl-4-(3-(piperidin-1-ylmethyl)benzyl)piperazin-1-yl)methyl)-N-hydroxybenzamide] |  |  |  |  |  |  |  |  |  |  |  | >120 |  |  | 
3 | CC(C)CCN1CCN(Cc2cccc(CN3[C@H](C)CN(Cc4ccc(C(=O)NO)cc4)C[C@@H]3C)c2)CC1 [Compound 454, N-hydroxy-4-(((3R,5S)-4-(3-((4-isopentylpiperazin-1-yl)methyl)benzyl)-3,5-dimethylpiperazin-1-yl)methyl)benzamide] |  | ** (50%~100%) |  |  |  |  |  |  |  |  |  | >237 |  | * (0%~50%) | * (0%~50%)
